Reference: the supplement of paper PMC11061612

Tests used:
Assay in all cases: combination Emax (second highest fraction inhibited in the dose matrix, 72 h); higher = more inhibition; extreme values may be limits of the assay
[1] = tested on: KE-37 (T-Lymphoblastic Leukemia)
Summary of the method: (§1)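 Bliss excess equals the observed combination effect minus the expected value EA + EB − EA·EB, where EA and EB are the effects of each agent alone. Combination Emax is the second-highest inhibition within the matrix. Inhibition was scaled from CellTiter-Glo 2.0 luminescence, with 0 set by vehicle wells and 1 by blank wells, after 72 hours of two-drug dosing of cells plated in 1536-well plates.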

[2] = tested on: LB996-RCC (Kidney Carcinoma)
Summary of the method: as §1

[3] = tested on: LK-2 (Squamous Cell Lung Carcinoma)
Summary of the method: as §1

[4] = tested on: HSC-39 (Gastric Carcinoma)
Summary of the method: as §1

[5] = tested on: HCT-15 (Colorectal Carcinoma)
Summary of the method: as §1

[6] = tested on: RERF-GC-1B (Gastric Carcinoma)
Summary of the method: as §1

[7] = tested on: CAL-62 (Thyroid Gland Carcinoma)
Summary of the method: as §1

[8] = tested on: OAW-42 (Ovarian Carcinoma)
Summary of the method: as §1

[9] = tested on: LN-229 (Glioblastoma)
Summary of the method: as §1

[10] = tested on: SF268 (Low Grade Glioma)
Summary of the method: as §1

[11] = tested on: LXF-289 (Lung Adenocarcinoma)
Summary of the method: as §1

[12] = tested on: RKN (Other Solid Carcinomas)
Summary of the method: as §1

[13] = tested on: WM793B (Melanoma)
Summary of the method: as §1

[14] = tested on: RCM-1 (Colorectal Carcinoma)
Summary of the method: as §1

[15] = tested on: SK-PN-DW (Other Solid Carcinomas)
Summary of the method: as §1

[16] = tested on: GP5d (Colorectal Carcinoma)
Summary of the method: as §1

[17] = tested on: 23132-87 (Gastric Carcinoma)
Summary of the method: as §1

[18] = tested on: TE-8 (Esophageal Squamous Cell Carcinoma)
Summary of the method: as §1

[19] = tested on: A2058 (Melanoma)
Summary of the method: as §1

[20] = tested on: CAL-120 (Breast Carcinoma)
Summary of the method: as §1

| SMILES | combination Emax [1] | combination Emax [2] | combination Emax [3] | combination Emax [4] | combination Emax [5] | combination Emax [6] | combination Emax [7] | combination Emax [8] | combination Emax [9] | combination Emax [10] | combination Emax [11] | combination Emax [12] | combination Emax [13] | combination Emax [14] | combination Emax [15] | combination Emax [16] | combination Emax [17] | combination Emax [18] | combination Emax [19] | combination Emax [20] |
| --- | --- | --- | --- | --- | --- | --- | --- | --- | --- | --- | --- | --- | --- | --- | --- | --- | --- | --- | --- | --- |
| C[C@@H](c1ccc2nccn2c1)n1nnc2ncc(-c3cnn(C)c3)nc21 [Savolitinib] + Cc1c2c(nn1C)CSCc1cc(n(C)n1)CSc1cc(c3ccccc3c1)OCCCc1c(C(=O)O)n(C)c3c-2c(Cl)ccc13 [AZD5991] (first compound max 1 µM, 7x7, partner max 1 µM) | 0.159 | 0.125 | 0.202 | 0.99 | 0.152 | 0.788 | 0.131 | 0.21 | 0.221 | 0.167 | 0.306 | 0.117 | 0.168 | 0.114 | 0.766 | 0.861 | 0.179 | 0.323 | 0.36 | 0.112 |
| Cn1cnc2c(F)c(Nc3ccc(Br)cc3Cl)c(C(=O)NOCCO)cc21 [Selumetinib] + C=CCn1c(=O)c2cnc(Nc3ccc(N4CCN(C)CC4)cc3)nc2n1-c1cccc(C(C)(C)O)n1 [AZD1775] (first compound max 10 µM, partner max 1 µM) | 0.947 | 0.717 | 0.931 | 0.82 | 0.712 | 0.788 | 0.607 | 0.513 | 0.316 | 0.473 | 0.514 | 0.42 | 0.534 | 0.637 | 0.798 | 0.888 | 0.275 | 0.57 | 0.685 | 0.326 |
| Cn1cnc2c(F)c(Nc3ccc(Br)cc3Cl)c(C(=O)NOCCO)cc21 [Selumetinib] + CC(C)n1c(=O)n(C)c2cnc3cc(F)c(-c4ccc(OCCCN5CCCCC5)nc4)cc3c21 [AZD1390] (first compound max 10 µM, 7x7, partner max 0.3 µM) | 0.303 | 0.181 | 0.49 | 0.201 | 0.155 | 0.368 | 0.219 | 0.192 | 0.153 | 0.139 | 0.146 | 0.379 | 0.503 | 0.616 | 0.139 | 0.683 | 0.0937 | 0.546 | 0.426 | 0.112 |
| Cn1cnc2c(F)c(Nc3ccc(Br)cc3Cl)c(C(=O)NOCCO)cc21 [Selumetinib] + CCN(CCO)CCCOc1ccc2c(Nc3cc(CC(=O)Nc4cccc(F)c4)[nH]n3)ncnc2c1 [AZD2811] (first compound max 10 µM, 7x7, partner max 1 µM) | 1 | 0.343 | 0.795 | 0.903 | 0.28 | 0.436 | 0.291 | 0.194 | 0.286 | 0.275 | 0.514 | 0.352 | 0.528 | 0.656 | 0.572 | 0.842 | 0.104 | 0.347 | 0.649 | 0.188 |
| Cn1cnc2c(F)c(Nc3ccc(Br)cc3Cl)c(C(=O)NOCCO)cc21 [Selumetinib] + C[C@@H]1COCCN1C2=NC(=NC(=C2)C3(CC3)[S@](=N)(=O)C)C4=C5C=CNC5=NC=C4 [AZD6738] (first compound max 10 µM, 7x7, partner max 10 µM) | 0.959 | 0.556 | 0.39 | 0.994 | 0.753 | 0.522 | 0.672 | 0.507 | 0.552 | 0.49 | 0.591 | 0.45 | 0.703 | 0.656 | 0.915 | 0.861 | 0.429 | 0.495 | 0.83 | 0.436 |
| CC(=O)Nc1cccc(-n2c(=O)n(C3CC3)c(=O)c3c(Nc4ccc(I)cc4F)n(C)c(=O)c(C)c32)c1 [Trametinib] + Cc1nc(-c2cn3c(n2)-c2ccc(-c4cnn(C(C)(C)C(N)=O)c4)cc2OCC3)n(C(C)C)n1 [Taselisib] (first compound max 1 µM, 7x7, partner max 10 µM) | 0.676 | 0.955 | 0.608 | 1 | 0.756 | 0.949 | 0.765 | 0.969 | 0.803 | 0.484 | 0.963 | 0.544 | 0.855 | 0.871 | 0.695 | 0.907 | 0.636 | 0.782 | 1 | 0.564 |
